Square brackets hold non-standard residues; d marks the D form. Peptide text beside a SMILES is read from it. Aoda(9S-OH) = C[C@H](O)C(=O)CCCCC[C@H](N)C(=O)O; Phe(4-CN) = N#Cc1ccc(C[C@H](N)C(=O)O)cc1; Iva = CC[C@](C)(N)C(=O)O
Columns and labels:
[1] = target: T1, human histone deacetylase; test: Test 1: Determination of histone deacetylase inhibitor activity; format: biochemical; settings: partially purified human histone deacetylase from Jurkat cells; [3H] acetyl-labeled histones; 25° C., 30 minutes; read-out: Test 1: HDAC inhibitory activity IC50
T1 construct: The human histone deacetylase was partially purified from human T cell leukemia Jurkat cells
Description: Test 1: Determination of Histone Deacetylase Inhibitor Activity
The partial purification of human histone deacetylase, the preparation of [^3H] acetyl histones, and the assay for histone deacetylase activity were performed basically according to the method as proposed by Yoshida et al. as follows.
Partial Purification of Human Histone Deacetylase
The human histone deacetylase was partially purified from human T cell leukemia Jurkat cells. Jurkat cells (5×10^8 cells) were suspended in 40 ml of the HDA buffer consisting of 15 mM potassium phosphate, pH 7.5, 5% glycerol and 0.2 mM EDTA. After homogenization, nuclei were collected by centrifugation (35,000×g, 10 min) and homogenized in 20 ml of the same buffer supplemented with 1 M (NH4)2SO4. The viscous homogenate was sonicated and clarified by centrifugation (35,000×g, 10 min), and the deacetylase was precipitated by raising the concentration of (NH4)2SO4 to 3.5 M. The precipitated protein was dissolved in 10 ml of the HDA buffer and dialyzed against 4 liters of the same buffer. The dialyzate was then loaded onto a DEAE-cellulose (Whatman DE52) column (25×85 mm) equilibrated with the same buffer and eluted with 300 ml of a linear gradient (0-0.6 M) of NaCl. A single peak of histone deacetylase activity appeared between 0.3 and 0.4 M NaCl.
Preparation of [^3H] Acetyl Histone
To obtain [^3H] acetyl-labeled histone as the substrate for the histone deacetylase assay, 1×10^8 cells of Jurkat in 20 ml of RPMI-1640 medium (supplemented with 10% FBS, penicillin (50 units/ml) and streptomycin (50 μg/ml)) were incubated with 300 MBq [^3H] sodium acetate in the presence of 5 mM sodium butyrate for 30 minutes in 5% CO2-95% air atmosphere at 37° C. in a 75 cm^2 flask, harvested into a centrifuge tube (50 ml), collected by centrifugation at 1000 rpm for 10 minutes, and washed once with phosphate-buffered saline. The washed cells were suspended in 15 ml of ice-cold lysis buffer (10 mM Tris-HCl, 50 mM sodium bisulfite, 1% Triton X-100, 10 mM MgCl2, 8.6% sucrose, pH 6.5). After Dounce homogenization (30 stroke), the nuclei were collected by centrifugation at 1000 rpm for 10 minutes, washed 3 times with 15 ml of the lysis buffer, and once with 15 ml of ice-cooled washing buffer (10 mM Tris-HCl, 13 mM EDTA, pH 7.4) successively. The pellet was suspended in 6 ml of ice-cooled water using a mixer, and 68 μl of H2SO4 was added to the suspension to give a concentration of 0.4 N. After incubation at 4° C. for 1 hour, the suspension was centrifuged for 5 minutes at 15,000 rpm, and the supernatant was taken and mixed with 60 ml of acetone. After overnight incubation at −20° C., the coagulated material was collected by microcentrifugation, air-dried, and stored at −80° C.
Assay for Histone Deacetylase Activity
For the standard assay, 10 μl of [^3H] acetyl-labeled histones were added to 90 μl of the enzyme fraction, and the mixture was incubated at 25° C. for 30 minutes. The reaction was stopped by addition of 10 μl of HCl. The released [^3H] acetic acid was extracted with 1 ml of ethyl acetate, and 0.9 ml of the solvent layer was taken into 10 ml of toluene scintillation solution for determination of radioactivity.

[2] = system: splenic cells of Lewis rats; test: Test 2: Determination of T-cell growth inhibitor activity (T lymphocyte blastogenesis test); format: cell-based; settings: Lewis rat splenic cells, Concanavalin A (1 μg/ml), 72 hours, AlamarBlue Assay, read-out: Test 2: T-cell growth inhibitory activity IC50
Description: Test 2: Determination of T-Cell Growth Inhibitor Activity
The T lymphocyte blastogenesis test was performed in microtiter plates with each well containing 1.5×10^5 splenic cells of Lewis rats in 0.1 ml RPMI-1640 medium supplemented with 10% fetal bovine serum (FBS), […] 2-mercaptoethanol, penicilln (100 units/ml) and streptomycin (100 μg/ml), to which Concanavalin A (1 μg/ml) was added. The cells were incubated at 37° C. in a humidified atmosphere of 5% CO2 for 72 hours. After the culture period, suppressive activities of the test compounds in T lymphocyte blastogenesis were quantified by AlamarBlue (trademark) Assay. The test samples were dissolved in DMSO and further diluted with RPMI-1640 medium and added to the culture. The activities of the test compounds were expressed as IC50.

[3] = system: TNFα induced NF-κB activation; test: Test 3: NF-κB reporter gene assay in TNFα-stimulated HEL cells; format: cell-based; settings: HEL cells transfected with pNFκB-TA-Luc, TNFα (10 ng/ml); at doses up to 3 nM; FIG. 2
Description: Test 3: Effect of HDAC Inhibitor on TNFα Induced NF-κB Activation 8.75×10^6 HEL cells (JCRB0062, JCRB) were transfected with 10 μg of pNFκB-TA-Luc (Clontech, as shown in FIG. 1) by electroporation at 1750 V and 10 μF with Gene Pulser II (BIO-RAD). The cells were resuspended in 2 ml of RPMI1640 (SIGMA) supplemented with 10% FBS (MOREGATE) and aliquated 50 μl each well in 96-well tissue culture plates. After 5 hr culture at 37° C., 5% CO2, for cell function recovery, the cells were cultured in the presence or absence of TNFα (10 ng/ml) for 4 hr. TNFα stimulated cells were incubated with Compound E138 or FK506 (commercial available immunosuppresive agent, also referred as Tacrolimus) at appropriate concentrations for 1 hour prior to stimulation. For the NF-κB reporter gene assay, the transfected cells were lysed and assayed for luciferase activity with the Bright-glo Luciferase Assay System (Promega) according to the manufacturer's instructions.

[4] = system: MCP-1 production by activated THP-1 cells; test: Test 4: MCP-1 production by activated THP-1 cells (MCP-1 ELISA); format: cell-based, human; settings: PMA 50 ng/mL 16 hours, compound 9 hr, at doses up to 1 nM, FIG. 3
Description: Test 4: Effect of HDAC Inhibitor on MCP-1 Production by Activated THP-1 Cells For the measurement of MCP-1 level by ELISA, 1×10^6 THP-1 cells (JCRB0112, JCRB) were plated in 6-well tissue culture plates. The cells were cultured in RPMI1640 (SIGMA) supplemented with 10% FBS (MOREGATE) in the presence of PMA (SIGMA, 50 ng/mL) for 16 hours at 37° C., 5% CO2. After incubation, the medium was changed to RPMI1640 supplemented with 2% FBS and various concentrations of Compound E138 or FK506 were added. The cells were further cultured for 9 hr and the amount of MCP-1 protein secreted by activated THP-1 cells into the medium was determined by […] Immuno assay System human MCP-1 (Genzyme Techne) according to the manufacturer's instructions.

[5] = system: IL-2 mRNA expression in activated Jurkat cells; test: IL-2 mRNA expression in activated Jurkat cells; format: cell-based, human; settings: at 1 nM

| IC50 [1] [nM] | SMILES | IC50 [2] [nM] | effect on TNFα induced NF-κB activation [3] | effect on MCP-1 production by activated THP-1 cells [4] | inhibition of IL-2 mRNA expression [5] |
| --- | --- | --- | --- | --- | --- |
| < 100 | CC[C@]1(C)NC(=O)[C@H](CCCCCC(=O)[C@@H](C)O)NC(=O)[C@H]2CCCN2C(=O)[C@H](Cc2ccc(F)cc2)NC1=O [Compound E17] | < 50 | – | – | – |
| < 100 | CCOc1ccc(C[C@@H]2NC(=O)[C@](C)(CC)NC(=O)[C@H](CCCCCC(=O)[C@@H](C)O)NC(=O)[C@H]3CCCN3C2=O)cc1 [Compound E26] | < 50 | – | – | – |
| < 100 | CC[C@]1(C)NC(=O)[C@H](CCCCCC(=O)[C@@H](C)O)NC(=O)[C@H]2CCCN2C(=O)[C@H](Cc2ccc(OCc3ccccc3)cc2)NC1=O [Compound E6] | < 50 | – | – | – |
| < 100 | CCC1(CC)NC(=O)[C@H](CCCCCC(=O)[C@@H](C)O)NC(=O)[C@H]2CCCN2C(=O)[C@H](Cc2ccccc2)NC1=O [Compound E41] | < 50 | – | – | – |
| < 100 | CC[C@]1(C)NC(=O)[C@H](CCCCCC(=O)[C@@H](C)O)NC(=O)[C@H]2CCCN2C(=O)[C@H](Cc2ccccc2F)NC1=O [Compound E33] | < 50 | – | – | – |
| < 100 | CC[C@]1(C)NC(=O)[C@H](CCCCCC(=O)[C@H](C)O)NC(=O)[C@H]2CCCN2C(=O)[C@H](Cc2ccc(C#N)cc2)NC1=O [Compound E23] (cyclo([Iva][Phe(4-CN)][dP][Aoda(9S-OH)])) | < 50 | – | – | – |
| < 100 | CC[C@@H](O)C(=O)/C=C/CCC[C@@H]1NC(=O)[C@H]2CCCN2C(=O)[C@H](Cc2ccccc2)NC(=O)[C@](C)(CC)NC1=O [Compound E48] | < 50 | – | – | – |
| – | C=CC[C@@H]1/C=C(\C)C[C@H](C)C[C@H](OC)[C@H]2O[C@@](O)(C(=O)C(=O)N3CCCC[C@H]3C(=O)O[C@H](/C(C)=C/[C@@H]3CC[C@@H](O)[C@H](OC)C3)[C@H](C)[C@@H](O)CC1=O)[C@H](C)C[C@@H]2OC [FK506, Tacrolimus] | – | no direct effect | no direct effect | almost completely inhibits |
| < 100 | CC[C@]1(C)NC(=O)[C@H](CCCCCC(=O)[C@@H](C)O)NC(=O)[C@H]2CCCN2C(=O)[C@H](Cc2ccc(O)cc2)NC1=O [Compound E8] | < 50 | – | – | – |
| < 100 | CC[C@]1(C)NC(=O)[C@H](CCCCCC(=O)[C@@H](C)O)NC(=O)[C@H]2CCCN2C(=O)[C@H](Cc2ccc(Cl)cc2)NC1=O [Compound E38] | < 50 | – | – | – |
| < 100 | CC[C@@H](O)C(=O)CCCCC[C@@H]1NC(=O)[C@H]2CCCN2C(=O)[C@H](Cc2ccccc2F)NC(=O)[C@](C)(CC)NC1=O [Compound E35] | < 50 | – | – | – |

| SMILES | IC50 [1] [nM] | IC50 [2] [nM] | effect on TNFα induced NF-κB activation [3] | effect on MCP-1 production by activated THP-1 cells [4] | inhibition of IL-2 mRNA expression [5] |
| --- | --- | --- | --- | --- | --- |
| CC[C@]1(C)NC(=O)[C@H](CCCCCC(=O)[C@@H](C)O)NC(=O)[C@H]2CCCN2C(=O)[C@H](Cc2ccc(OC)cc2)NC1=O [Compound E13] | < 100 | < 50 | – | – | – |
